Patent US7964620B2, “Imidazole derivatives” (Hoffmann-La Roche Inc., priority 2003, dated 2011)
pKi: −log10 of the molar value.

Molecular target: T1, human mGlu 5a receptor (Homo sapiens, UniProt P41594)
T1 construct: expressed in transfected cells; host or cells: EBNA cells (transient transfection); cell membrane homogenates
Experiment: [3H]MPEP competition binding on membranes of EBNA cells transiently transfected with human mGlu 5a receptor
Settings: competition with 2 nM [3H]MPEP, 1 h at 4° C., Ki=IC50/[1+L/Kd]
Experimental: For binding experiments, cDNA encoding human mGlu 5a receptor was transiently trans-fected into EBNA cells using a procedure described by Schlaeger and Christensen [Cyto-technology 15:1-13 (1998)]. Cell membrane homogenates were stored at −80° C. until the day of assay where upon they were thawed and resuspended and polytronized in 15 mM Tris-HCl, 120 mM NaCl, 100 mM KCl, 25 mM CaCl2, 25 mM MgCl2 binding buffer at pH 7.4 to a final assay concentration of 20 μg protein/well.
Saturation isotherms were determined by addition of twelve [^3H]MPEP concentrations (0.04-100 nM) to these membranes (in a total volume of 200 μl) for 1 h at 4° C. Competition experiments were performed with a fixed concentration of [^3H]MPEP (2 nM) and IC50 values of test compounds evaluated using 11 concentrations (0.3-10,000 nM). Incubations were performed for 1 h at 4° C.
At the end of the incubation, membranes were filtered onto unifilter (96-well white microplate with bonded GF/C filter preincubated 1 h in 0.1% PEI in wash buffer, Packard BioScience, Meriden, Conn.) with a Filtermate 96 harvester (Packard BioScience) and washed 3 times with cold 50 mM Tris-HCl, pH 7.4 buffer. Nonspecific binding was measured in the presence of 10 μM MPEP. The radioactivity on the filter was counted (3 min) on a Packard Top-count microplate scintillation counter with quenching correction after addition of 45 μl of microscint 40 (Can berra Packard S. A., Zürich, Switzerland) and shaking for 20 min. For functional assays, [Ca^2+]i measurements were performed as described previously by Porter et al. [Br. J. Pharmacol. 128:13-20 (1999)] on recombinant human mGlu 5a receptors in HEK-293 cells. The cells were dye loaded using Fluo 4-AM (obtainable by FLUKA, 0.2 μM final concentration). [Ca^2+]i measurements were performed using a fluorometric imaging plate reader (FLIPR, Molecular Devices Corporation, La Jolla, Calif., USA). Antagonist evaluation was performed following a 5 min preincubation with the test compounds followed by the addition of a submaximal addition of agonist.
The inhibition (antagonists) curves were fitted with a four parameter logistic equation giving IC50, and Hill coefficient using an iterative non linear curve fitting software (Xcel fit). For binding experiments the Ki values of the compounds tested are given. The Ki value is defined by the following formula: Ki=IC50/[1+L/Kd] in which the IC50 values are those concentrations of the compounds tested which cause 50% inhibition of the competing radioligand ([^3H]MPEP). L is the concentration of radioligand used in the binding experiment and the Kd value of the radioligand is empirically determined for each batch of membranes prepared.

T1 sequence (P41594 21-1180 isoform P41594-2 limits assumed): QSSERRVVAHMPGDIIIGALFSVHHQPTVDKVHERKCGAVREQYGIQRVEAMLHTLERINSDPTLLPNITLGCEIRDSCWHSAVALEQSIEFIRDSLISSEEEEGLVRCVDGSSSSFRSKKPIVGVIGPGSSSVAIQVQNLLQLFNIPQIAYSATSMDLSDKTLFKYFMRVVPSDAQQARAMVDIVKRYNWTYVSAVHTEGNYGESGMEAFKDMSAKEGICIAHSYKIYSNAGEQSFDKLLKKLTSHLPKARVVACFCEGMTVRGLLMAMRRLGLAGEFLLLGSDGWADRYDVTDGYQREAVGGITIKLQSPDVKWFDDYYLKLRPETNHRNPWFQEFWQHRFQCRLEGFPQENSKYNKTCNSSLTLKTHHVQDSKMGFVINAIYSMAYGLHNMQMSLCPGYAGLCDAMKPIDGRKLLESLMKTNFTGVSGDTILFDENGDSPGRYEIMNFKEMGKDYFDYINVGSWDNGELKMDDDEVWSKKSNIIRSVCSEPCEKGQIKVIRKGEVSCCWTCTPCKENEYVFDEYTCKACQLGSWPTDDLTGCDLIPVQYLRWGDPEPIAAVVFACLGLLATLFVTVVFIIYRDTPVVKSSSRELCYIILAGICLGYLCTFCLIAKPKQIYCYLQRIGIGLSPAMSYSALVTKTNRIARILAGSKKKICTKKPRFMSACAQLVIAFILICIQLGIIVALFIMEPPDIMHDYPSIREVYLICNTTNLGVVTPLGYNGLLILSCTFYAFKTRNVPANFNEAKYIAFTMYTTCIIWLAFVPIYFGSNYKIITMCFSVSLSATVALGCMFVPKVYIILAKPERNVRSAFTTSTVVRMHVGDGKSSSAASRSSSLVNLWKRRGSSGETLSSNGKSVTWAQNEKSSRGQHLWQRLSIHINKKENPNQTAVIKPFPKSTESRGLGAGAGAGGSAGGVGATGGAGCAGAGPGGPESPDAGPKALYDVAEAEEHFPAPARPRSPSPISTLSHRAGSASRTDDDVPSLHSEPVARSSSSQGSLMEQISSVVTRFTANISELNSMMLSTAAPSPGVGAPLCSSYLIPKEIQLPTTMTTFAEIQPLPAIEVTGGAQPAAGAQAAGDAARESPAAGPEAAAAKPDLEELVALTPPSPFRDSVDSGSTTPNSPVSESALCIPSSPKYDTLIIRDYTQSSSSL

Row | Compound | pKi
1 | Cc1cc(C#Cc2cn(C(C)c3ccccc3)c(C)n2)ccn1 (racemic) [Example 23, rac-2-Methyl-4-[2-methyl-1-(1-phenyl-ethyl)-1H-imidazol-4-ylethynyl]-pyridine] | 7.11
2 | Cc1cc(C#Cc2cn(Cc3cccc(C)n3)c(C)n2)ccn1 [Example 4, 4-[1-(6-Methyl-pyridin-2-ylmethyl)-2-methyl-1H-imidazol-4-ylethynyl]-2-methyl-pyridine] | 7.03
3 | Cc1nc(C#Cc2cccc(C#N)c2)cn1Cc1cncc(Cl)c1 [Example 18, 3-[1-(5-Chloro-pyridin-3-ylmethyl)-2-methyl-1H-imidazol-4-ylethynyl]-benzonitrile] | 7.03

These reach a higher pKi. Values come first.

Row | pKi | Compound
4 | 7.40 | Cc1nc(C#Cc2cccc(Cl)c2)cn1Cc1ccccn1 [Example 3, 2-[4-(3-Chloro-phenylethynyl)-2-methyl-imidazol-1-ylmethyl]-pyridine]
5 | 7.48 | Cc1cc(C#Cc2cn(CCc3ccccc3)c(C)n2)ccn1 [Example 29, 2-Methyl-4-(2-methyl-1-phenethyl-1H-imidazol-4-ylethynyl)-pyridine]
